From article PMC3672848 (Journal of immunology (Baltimore, Md. : 1950), 2013)
Blank lines part the entries; values can stand above or below the molecule they belong to.

What was measured:
Format in all cases: cell-based
P2X7R [1] = biological target: T1, P2X7R (Homo sapiens, UniProt Q99572); test: whole-cell patch clamp:[…] blocks […] ATP-evoked current
T1 sequence (Q99572 1-595): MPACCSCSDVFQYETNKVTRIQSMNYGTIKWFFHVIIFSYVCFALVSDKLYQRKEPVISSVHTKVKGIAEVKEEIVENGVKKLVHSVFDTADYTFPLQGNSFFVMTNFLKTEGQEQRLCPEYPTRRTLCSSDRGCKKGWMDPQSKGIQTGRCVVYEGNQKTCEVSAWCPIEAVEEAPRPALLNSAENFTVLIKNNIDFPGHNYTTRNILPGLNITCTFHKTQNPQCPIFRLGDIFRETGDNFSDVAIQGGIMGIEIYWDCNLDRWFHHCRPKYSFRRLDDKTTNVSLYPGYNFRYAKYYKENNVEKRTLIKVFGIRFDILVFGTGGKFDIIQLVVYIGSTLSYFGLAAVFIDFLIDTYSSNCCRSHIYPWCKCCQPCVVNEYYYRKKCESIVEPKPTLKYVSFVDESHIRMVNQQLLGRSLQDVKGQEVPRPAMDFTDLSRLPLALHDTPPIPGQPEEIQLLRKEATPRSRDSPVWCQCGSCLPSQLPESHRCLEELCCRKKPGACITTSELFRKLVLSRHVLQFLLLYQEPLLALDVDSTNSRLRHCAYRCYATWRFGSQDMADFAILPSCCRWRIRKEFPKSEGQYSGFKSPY

P2X7R [2] = biological target: T1, P2X7R; test: inhibition of ATP-induced
P2X7R [3] = biological target: T1, P2X7R; test: whole-cell patch clamp, concentration-dependent inward currents

IC50 (P2X7R [1]): 2250 nM
Structure (SMILES): Clc1cccc(-c2nnnn2Cc2cccnc2)c1Cl [A438079]

IC50 (P2X7R [2]): 1350 nM
Structure (SMILES): O=C1CSC(=O)N1C(CCc1ccncc1)COc1ccc(-c2cccc([N+](=O)[O-])c2)cc1 (stereo not drawn) [AZ11645373]

EC50 (P2X7R [3]): 877000 nM
Structure (SMILES): Nc1ncnc2c1ncn2[C@@H]1O[C@H](COP(=O)(O)OP(=O)(O)OP(=O)(O)O)[C@@H](O)[C@H]1O [ATP]
